The source of these data is ChEMBL document CHEMBL3751825, “Synthesis and protective effect of new ligustrazine derivatives against CoCl2-induced neurotoxicity in differentiated PC12 cells. Part 2” (Medchemcomm, 2015).

SMILES strings stand for the structures. pEC50: −log10 of the molar value. Bounds are passed on as bounds.

The first assay in a line: Neuroprotective activity against cobalt chloride-induced neurotoxicity in rat differentiated PC12 cells. It counts as functional, cell-based. The conditions noted are these: pc-12.
`C=CCc1ccc(OCc2nc(C)c(C)nc2C)c(OC)c1` gave a pEC50 of 5.34. In turn, `COc1ccc(C(C)=O)c(OCc2nc(C)c(C)nc2C)c1` had a pEC50 of over 4.82. On the same count and under the same terms, with `COc1cccc(/C=C/C(=O)OCc2nc(C)c(C)nc2C)c1` the figure was over 4.62. The same measure, in the same setting: as for `COc1cc(/C=C/C(=O)OCc2nc(C)c(C)nc2C)cc(OC)c1OC`, the figure is over 4.62; as for `COc1ccc(/C=C/C(=O)OCc2nc(C)c(C)nc2C)cc1OC`, over 4.62. The molecule `COc1cccc(/C=C/C(=O)OCc2nc(C)c(C)nc2C)c1OC` had a pEC50 of over 4.62.

In turn, `Cc1nc(C)c(COC(=O)c2cc(OCc3nc(C)c(C)nc3C)c(OCc3nc(C)c(C)nc3C)c(OCc3nc(C)c(C)nc3C)c2)nc1C` had a pEC50 of under 4.00. The same measure, in the same setting: with `COc1ccccc1/C=C/C(=O)OCc1nc(C)c(C)nc1C` the figure was over 4.62. Turning to `COc1ccc(OC)c(/C=C/C(=O)OCc2nc(C)c(C)nc2C)c1`, the pEC50 was over 4.62. Consider `COc1ccc(/C=C/C(=O)OCc2nc(C)c(C)nc2C)c(OC)c1OC`, for which the pEC50 was 6.14. On the same count and under the same terms, with `COc1ccc(/C=C/C(=O)OCc2nc(C)c(C)nc2C)cc1` the figure was over 4.62.

The nature of a further assay: Neuroprotective activity against cobalt chloride-induced neurotoxicity in rat NGF-differentiated PC12 cells assessed as increase of neurite-bearing cell level at 60 uM after 12 hrs.
Conditions: not given
As to `COc1ccc(/C=C/C(=O)OCc2nc(C)c(C)nc2C)c(OC)c1OC`, the Activity is listed as 50.8%.
